Results published in paper PMC12004451, “Characterization of the Two-Domain Peptide Binding Mechanism of the Human CGRP Receptor for CGRP and the Ultrahigh Affinity ssCGRP Variant” (Biochemistry, 2025).
Several values for one entry are separate records, joined by “and”; a condition that tells them apart may be missing. Identical values can stand only once. Like-named read-outs stand apart in the source and are kept apart here. Bridge positions count the residues as written; N and C are the ends. Ends that are not written are not given here. Peptide text beside a SMILES is read from it. * marks the point of attachment. 5TAMRA = CN(C)c1ccc2c(c1)Oc1cc(N(C)C)ccc1C21OC(=O)c2cc(C(=O)*)ccc21

How the values were obtained:
[1] = biological target: T1, CGRP receptor (Nluc-CLR:RAMP1) (Homo sapiens, UniProt O60894+Q16602); test: nanoBRET association kinetics of TAMRA probes; type: binding
T1 construct: N-terminally Nanoluciferase (NLuc)-tagged CLR (pcDNA3.1(+)sec/NanoLuc-GSGIS-CLR.23-461); Wild-type CLR and RAMP expression plasmids were obtained from cDNA.org; sec (vector secretion signal before NanoLuc) (N); expressed in transfected cells; host or cells: COS-7 cells, membrane preparation
Description: After 2 days, the cells were washed with PBS and harvested with ice-cold PBS + 5 mM EDTA. The cells were pelleted in a centrifuge at 1000g for 5 min at 4 °C and resuspended in a hypotonic buffer (25 mM NaHEPES pH 7.5, 2 mM MgCl2, 1 mM EDTA, and 1× EDTA-free PIERCE protease inhibitor tablet). After resuspension, cells were homogenized with an Ultra Turrax for 30 s at 10,000 rpm followed by a 10 min incubation. Cell debris was pelleted at 800g for 10 min and the supernatant was transferred to ultracentrifuge tubes and centrifuged at 100,000g for 1 h. Membranes were resuspended in a wash buffer (25 mM NaHEPES pH 7.5, 250 mM NaCl, 2 mM MgCl2, 1 mM EDTA, and 1× protease inhibitor tablet). The homogenization and ultracentrifugation were repeated once more and the membranes were resuspended in storage buffer (25 mM NaHEPES pH 7.5, 25 mM NaCl, 2 mM MgCl2, 10% v/v glycerol, and 1× protease inhibitor tablet). The resuspended membranes were homogenized, aliquoted, and flash frozen in liquid nitrogen for storage at -80 °C. Total protein was quantitated using the DC protein assay (BioRad) per the manufacturer's instructions. The concentration of NLuc-CLR was determined by comparing the membrane prep luminescence to a standard curve using purified NLuc enzyme (Promega; […]). […] Costar 3912). […] The observed association rates (kobs) were plotted against probe concentration and the data was analyzed by linear regression. The kon and koff were obtained as the slope and y-intercept, respectively.

[2] = biological target: T1, CGRP receptor (Nluc-CLR:RAMP1); test: nanoBRET equilibrium competition binding, Nluc-CLR:RAMP1 membranes; details: room temperature, Cheng-Prusoff, mean ± SEM, n=3
Description: After 2 days, the cells were washed with PBS and harvested with ice-cold PBS + 5 mM EDTA. The cells were pelleted in a centrifuge at 1000g for 5 min at 4 °C and resuspended in a hypotonic buffer (25 mM NaHEPES pH 7.5, 2 mM MgCl2, 1 mM EDTA, and 1× EDTA-free PIERCE protease inhibitor tablet). After resuspension, cells were homogenized with an Ultra Turrax for 30 s at 10,000 rpm followed by a 10 min incubation. Cell debris was pelleted at 800g for 10 min and the supernatant was transferred to ultracentrifuge tubes and centrifuged at 100,000g for 1 h. Membranes were resuspended in a wash buffer (25 mM NaHEPES pH 7.5, 250 mM NaCl, 2 mM MgCl2, 1 mM EDTA, and 1× protease inhibitor tablet). The homogenization and ultracentrifugation were repeated once more and the membranes were resuspended in storage buffer (25 mM NaHEPES pH 7.5, 25 mM NaCl, 2 mM MgCl2, 10% v/v glycerol, and 1× protease inhibitor tablet). The resuspended membranes were homogenized, aliquoted, and flash frozen in liquid nitrogen for storage at -80 °C. Total protein was quantitated using the DC protein assay (BioRad) per the manufacturer's instructions. The concentration of NLuc-CLR was determined by comparing the membrane prep luminescence to a standard curve using purified NLuc enzyme (Promega; […]). […] The Cheng-Prusoff correction[30] was used to calculate the Ki from the IC50.

[3] = biological target: T1, CGRP receptor (Nluc-CLR:RAMP1); test: nanoBRET competition association kinetics (Motulsky-Mahan); type: binding; details: for Kd: mean ± SEM, n=3, read-out: Kd calc (koff/kon)
Description: Membrane preparation was performed as previously described.[29] COS-7 cells in ten […] plastic culture dishes (Corning; 430599) were transiently transfected with 2 μg NLuc-CLR, 2 μg RAMP1, and 46 μg empty pcDNA3.1(+) expression plasmids/dish with 75 μg Polyethylenimine (PEI)/dish. After 2 days, the cells were washed with PBS and harvested with ice-cold PBS + 5 mM EDTA. The cells were pelleted in a centrifuge at 1000g for 5 min at 4 °C and resuspended in a hypotonic buffer (25 mM NaHEPES pH 7.5, 2 mM MgCl2, 1 mM EDTA, and 1× EDTA-free PIERCE protease inhibitor tablet). After resuspension, cells were homogenized with an Ultra Turrax for 30 s at 10,000 rpm followed by a 10 min incubation. Cell debris was pelleted at 800g for 10 min and the supernatant was transferred to ultracentrifuge tubes and centrifuged at 100,000g for 1 h. Membranes were resuspended in a wash buffer (25 mM NaHEPES pH 7.5, 250 mM NaCl, 2 mM MgCl2, 1 mM EDTA, and 1× protease inhibitor tablet). The homogenization and ultracentrifugation were repeated once more and the membranes were resuspended in storage buffer (25 mM NaHEPES pH 7.5, 25 mM NaCl, 2 mM MgCl2, 10% v/v glycerol, and 1× protease inhibitor tablet). The resuspended membranes were homogenized, aliquoted, and flash frozen in liquid nitrogen for storage at −80 °C. Total protein was quantitated using the DC protein assay (BioRad) per the manufacturer’s instructions. The concentration of NLuc-CLR was determined by comparing the membrane prep luminescence to a standard curve using purified NLuc enzyme (Promega; G9711). The total protein concentration was 0.91 mg/mL and the NLuc-CLR was 7.35 nM.
Emission at 460 and 610 nm were measured every 16 s for 45 min with the PolarSTAR Omega plate reader mixing 300 rpm for 1 s before each cycle. The curves were fit using GraphPad Prism to the Motulsky-Mahan competition kinetics equation[31] modified to account for the signal decay component as previously described[32] to determine the kon and koff of the competitor. The Kd (koff/kon), half-life (ln 2/koff), and residence time (1/koff) values were calculated.

[4] = competition against 10 nM CGRP(27-37)*-TAMRA probe, 2 h, read-out: Ki

With CC(C)[C@H](NC(=O)[C@H](CC(=O)O)NC(=O)[C@@H](NC(=O)[C@@H]1CCCN1C(=O)[C@@H](NC(=O)[C@@H](N)Cc1ccccc1)C(C)C)[C@@H](C)O)C(=O)NCC(=O)N1CCC[C@H]1C(=O)N[C@@H](CCCCNC(=O)c1ccc2c(c1)C(=O)OC21c2ccc(N(C)C)cc2Oc2cc(N(C)C)ccc21)C(=O)N[C@@H](CO)C(=O)N[C@@H](Cc1ccc(O)cc1)C(N)=O [CGRP(27-37)*-TAMRA, αCGRP(27-37) N31D/S34P/K35-TAMRA/A36S/F37Y] (H-FVPTDVGPK(5TAMRA)SY-NH2; N-terminus assumed) the kon ([1]; association kinetics, 25 °C, kobs vs probe concentration, slope of linear regression, fit of first 10 min (full 1 h 15 min for ssCGRP(8-37)-TAMRA), mean ± SEM, n=3) was 2.75e+06 M⁻¹ s⁻¹, the koff ([1]; association kinetics, 25 °C, y-intercept of kobs vs probe concentration, mean ± SEM, n=3) was 0.0635 s⁻¹ and the half-life ([1]; from association kinetics) was 11 s.

Work on CC(C)C[C@H](NC(=O)CNC(=O)[C@H](C)NC(=O)[C@H](CC(C)C)NC(=O)[C@H](CCCNC(=N)N)NC(=O)[C@H](Cc1c[nH]cn1)NC(=O)[C@@H](NC(=O)[C@@H](NC(=O)[C@@H]1CSSC[C@H](NC(=O)[C@H](C)N)C(=O)N[C@@H](CC(=O)O)C(=O)N[C@@H]([C@@H](C)O)C(=O)N[C@@H](C)C(=O)N[C@@H]([C@@H](C)O)C(=O)N1)C(C)C)[C@@H](C)O)C(=O)N[C@@H](CC(C)C)C(=O)N[C@@H](CO)C(=O)N[C@@H](CCCNC(=N)N)C(=O)N[C@@H](CO)C(=O)NCC(=O)NCC(=O)N[C@H](C(=O)N[C@H](C(=O)N[C@@H](CCCCN)C(=O)N[C@@H](CC(N)=O)C(=O)N[C@@H](CC(N)=O)C(=O)N[C@@H](Cc1ccccc1)C(=O)N[C@H](C(=O)N1CCC[C@H]1C(=O)N[C@H](C(=O)N[C@@H](CC(=O)O)C(=O)N[C@H](C(=O)NCC(=O)N1CCC[C@H]1C(=O)N[C@@H](Cc1c[nH]c2ccccc12)C(=O)N[C@@H](CO)C(=O)N[C@@H](Cc1ccccc1)C(N)=O)C(C)C)[C@@H](C)O)C(C)C)C(C)C)C(C)C [ssCGRP(1-37)] (H-ACDTATCVTHRLAGLLSRSGGVVKNNFVPTDVGPWSF-NH2; disulfide 2-7) yielded a Ki ([2]; G protein coupled state (30 μM sumo-miniGs), 3 nM AM2/IMD(8-47)-TAMRA probe, 8 h, read-out: Ki + mGs) of 0.19 ± 0.01 nM and a Ki ([2]; G protein uncoupled state (50 μM GTPγS), 30 nM AM2/IMD(8-47)-TAMRA probe, 8 h, read-out: Ki + GTPγS) of 0.248 ± 0.008 nM.

In the case of FVPTDVGPWSF-NH2 [ssCGRP(27-37)], the koff [3] is reported as 0.00222 s⁻¹, the kon [3] is reported as 3.22e+06 M⁻¹ s⁻¹ and the “Residence time (1/koff)” value ([3]; from competition kinetics) is reported as 7.57 ± 0.27 min and ~8 min. For the same molecule, the “t1/2 (ln 2/koff)” value ([3]; from competition kinetics) was 5.24 ± 0.18 min, the Kd ([3]; from competition kinetics) was 0.73 nM and the Ki [2, 4] was 0.527 ± 0.039 nM.

For “FVPTNVGSKAF-NH2 [CGRP(27-37), reference compound]”, the koff [3] was 0.203 s⁻¹, the kon [3] was 195000 M⁻¹ s⁻¹ and the “Residence time (1/koff)” value ([3]; from competition kinetics) was 0.087 ± 0.015 min. The residence time ([3]; from competition kinetics) was about 0.0833 min, the “t1/2 (ln 2/koff)” value ([3]; from competition kinetics) was 0.06 ± 0.01 min and the Kd ([3]; from competition kinetics) was 1040 nM. For the same molecule, the Ki [2, 4] was 1050 nM.
